Laboratory results from patent US10752640B2, “Compounds active towards bromodomains” (NUEVOLUTION A/S, priority 2014, dated 2020).

Molecular target: BRD4 protein (Homo sapiens, UniProt O60885)
Test: FRET assay, half maximal inhibitory concentration (IC50)
Format: binding
Details: BRD4 protein 50 nM, Biotin-H4KAc4 peptide 12.5 nM; List of Classification
Method in brief: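 HTRF: 50 nM BRD4 preincubated 30 min at room temperature with compound (10-fold series from 50 μM in 12.5% DMSO) in 50 mM HEPES pH 7.5, 100 mM NaCl, 0.05% CHAPS. Then 12.5 nM biotin-H4KAc4 peptide for 30 min, and anti-GST XL665 (10 nM) plus streptavidin cryptate (2.4 nM) with 0.4 M KF for 1 h. IC50 by variable-slope fit.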

SMILES	IC50
Cc1cc(O)nc2ccc(NC(=O)c3cc(-c4ccoc4)ccc3N3CCOCC3)cc12 [Compound-167, 5-(3-furyl)-N-(2-hydroxy-4-methyl-6-quinolyl)-2-morpholino-benzamide]	< 200 nM
Cc1cc(O)nc2ccc(NC(=O)c3cc(C(C)O)ccc3N3CCOCC3)cc12 (centres unmarked) [Compound-168, N-(2-hydroxy-4-methylquinolin-6-yl)-5-(1-hydroxyethyl)-2-morpholinobenzamide]	< 200 nM
COc1cc(NC(=O)c2cc(-c3cnn(C)c3)cnc2N2CCOCC2)cc2c(C)cc(O)nc12 [Compound-169, N-(2-hydroxy-8-methoxy-4-methylquinolin-6-yl)-5-(1-methyl-1H-pyrazol-4-yl)-2-morpholinonicotinamide]	< 200 nM
COc1cc2nc(O)cc(C)c2cc1NC(=O)c1cc(-c2cnn(C)c2)cnc1N1CCOCC1 [Compound-170, N-(2-hydroxy-7-methoxy-4-methylquinolin-6-yl)-5-(1-methyl-1H-pyrazol-4-yl)-2-morpholinonicotinamide]	< 200 nM
Cc1cc2nc(O)cc(C)c2cc1NC(=O)c1cc(-c2cnn(C)c2)cnc1N1CCOCC1 [Compound-171, N-(2-hydroxy-4,7-dimethylquinolin-6-yl)-5-(1-methyl-1H-pyrazol-4-yl)-2-morpholinonicotinamide]	< 200 nM
Cc1cc(=O)[nH]c2ccc(NC(=O)c3cc(S(=O)(=O)N(C)C)ccc3N3CC[C@@H](F)C3)cc12 [Compound-172, (R)-5-(N,N-dimethylsulfamoyl)-2-(3-fluoropyrrolidin-1-yl)-N-(4-methyl-2-oxo-1,2-dihydroquinolin-6-yl)benzamide]	< 200 nM
Cc1cc(=O)[nH]c2ccc(NC(=O)c3cc(S(=O)(=O)N(C)C)ccc3N3CC[C@H](F)C3)cc12 [Compound-173, (S)-5-(N,N-dimethylsulfamoyl)-2-(3-fluoropyrrolidin-1-yl)-N-(4-methyl-2-oxo-1,2-dihydroquinolin-6-yl)benzamide]	< 200 nM
Cc1cc(O)nc2ccc(NC(=O)c3cc(-c4ccoc4)cnc3N3CCOCC3)cc12 [Compound-174, 5-(furan-3-yl)-N-(2-hydroxy-4-methylquinolin-6-yl)-2-morpholinonicotinamide]	500 to 1000 nM
Cc1cc(O)nc2ccc(NC(=O)c3cc(-c4cnn(C)c4)cnc3N3CCOCC3)cc12 [Compound-175, N-(2-hydroxy-4-methylquinolin-6-yl)-5-(1-methyl-1H-pyrazol-4-yl)-2-morpholinonicotinamide]	< 200 nM
Cc1cc(O)nc2ccc(NC(=O)c3cc(-c4cnoc4)cnc3N3CCOCC3)cc12 [Compound-176, N-(2-hydroxy-4-methylquinolin-6-yl)-5-(isoxazol-4-yl)-2-morpholinonicotinamide]	< 200 nM
Cc1noc(C)c1-c1cnc(N2CCOCC2)c(C(=O)Nc2ccc3nc(O)cc(C)c3c2)c1 [Compound-177, 5-(3,5-dimethylisoxazol-4-yl)-N-(2-hydroxy-4-methylquinolin-6-yl)-2-morpholinonicotinamide]	< 200 nM
Cc1cc(O)nc2ccc(NC(=O)c3cc(-c4ccoc4)cnc3N3CC4(COC4)C3)cc12 [Compound-178, 5-(furan-3-yl)-N-(2-hydroxy-4-methylquinolin-6-yl)-2-(2-oxa-6-azaspiro[3.3]heptan-6-yl)nicotinamide]	500 to 1000 nM
Cc1cc(O)nc2c(C)cc(NC(=O)c3cc(-c4ccoc4)cnc3N3CCOCC3)cc12 [Compound-179, 5-(furan-3-yl)-N-(2-hydroxy-4,8-dimethylquinolin-6-yl)-2-morpholinonicotinamide]	< 200 nM
Cc1nnc(-c2ccc(N3CCOCC3)c(C(=O)Nc3ccc4nc(O)cc(C)c4c3)c2)o1 [Compound-180, N-(2-hydroxy-4-methylquinolin-6-yl)-5-(5-methyl-1,3,4-oxadiazol-2-yl)-2-morpholinobenzamide]	< 200 nM
Cc1cc(O)nc2ccc(NC(=O)c3cc(-c4nnn[nH]4)ccc3N3CCOCC3)cc12 [Compound-181, N-(2-hydroxy-4-methylquinolin-6-yl)-2-morpholino-5-(1H-tetrazol-5-yl)benzamide]	< 200 nM
Cc1cc(O)nc2ccc(NC(=O)c3cc(C(=O)O)ccc3N3CCOCC3)cc12 [Compound-182, 3-(2-hydroxy-4-methylquinolin-6-ylcarbamoyl)-4-morpholinobenzoic acid]	< 200 nM
Cc1cc(O)nc2ccc(NC(=O)c3cc(C#N)cnc3N3CCOCC3)cc12 [Compound-183, 5-cyano-N-(2-hydroxy-4-methylquinolin-6-yl)-2-morpholinonicotinamide]	500 to 1000 nM
Cc1cc(O)nc2ccc(NC(=O)c3cc(Br)cnc3N3CCC(F)C3)cc12 (centres unmarked) [Compound-184, 5-bromo-2-(3-fluoropyrrolidin-1-yl)-N-(2-hydroxy-4-methylquinolin-6-yl) nicotinamide]	500 to 1000 nM
Cc1cc(O)nc2ccc(NC(=O)c3cc(N4CCN(C)CC4)cnc3N3CCOCC3)cc12 [Compound-185, N-(2-hydroxy-4-methylquinolin-6-yl)-5-(4-methylpiperazin-1-yl)-2-morpholinonicotinamide]	< 200 nM

SMILES	IC50
Cc1cc(O)nc2ccc(NC(=O)c3cc(N4CCOCC4)cnc3N3CCOCC3)cc12 [Compound-186, N-(2-hydroxy-4-methylquinolin-6-yl)-2,5-dimorpholinonicotinamide]	< 200 nM
Cc1cc2nc(O)cc(C)c2cc1NC(=O)c1cc(-c2c(C)noc2C)cnc1N1CCOCC1 [Compound-188, 5-(3,5-dimethylisoxazol-4-yl)-N-(2-hydroxy-4,7-dimethylquinolin-6-yl)-2-morpholinonicotinamide]	< 200 nM
COc1cc(NC(=O)c2cc(-c3ccoc3)cnc2N2CCOCC2)cc2c(C)cc(O)nc12 [Compound-189, 5-(furan-3-yl)-N-(2-hydroxy-8-methoxy-4-methylquinolin-6-yl)-2-morpholinonicotinamide]	< 200 nM
COc1cc2nc(O)cc(C)c2cc1NC(=O)c1cc(-c2ccoc2)cnc1N1CCOCC1 [Compound-190, 5-(furan-3-yl)-N-(2-hydroxy-7-methoxy-4-methylquinolin-6-yl)-2-morpholinonicotinamide]	1000 to 10000 nM
Cc1cc2nc(O)cc(C)c2cc1NC(=O)c1cc(-c2ccoc2)cnc1N1CCOCC1 [Compound-191, 5-(furan-3-yl)-N-(2-hydroxy-4,7-dimethylquinolin-6-yl)-2-morpholinonicotinamide]	< 200 nM
Cc1cc2nc(O)cc(C)c2cc1NC(=O)c1cc(-c2nnn(C)n2)cnc1N1CCOCC1 [Compound-195, N-(2-hydroxy-4,7-dimethylquinolin-6-yl)-5-(2-methyl-2H-tetrazol-5-yl)-2-morpholinonicotinamide]	< 200 nM
Cc1cc2nc(O)cc(C)c2cc1NC(=O)c1cc(-c2nnnn2C)cnc1N1CCOCC1 [Compound-196, N-(2-hydroxy-4,7-dimethylquinolin-6-yl)-5-(1-methyl-1H-tetrazol-5-yl)-2-morpholinonicotinamide]	> 10000 nM
Cc1cc(O)nc2ccc(NC(=O)c3cc(C#N)ncc3N3CCC(F)C3)cc12 (centres unmarked) [Compound-197, 2-cyano-5-(3-fluoropyrrolidin-1-yl)-N-(2-hydroxy-4-methylquinolin-6-yl) isonicotinamide]	500 to 1000 nM
Cc1cc(O)nc2ccc(NC(=O)c3cc(S(=O)(=O)N(C)C)cnc3N3CCC(F)C3)cc12 (centres unmarked) [Compound-199, 5-(N,N-dimethylsulfamoyl)-2-(3-fluoropyrrolidin-1-yl)-N-(2-hydroxy-4-methylquinolin-6-yl)nicotinamide]	< 200 nM
Cc1cc(-c2cnc(N3CCOCC3)c(C(=O)Nc3cc4c(C)cc(O)nc4cc3C)c2)on1 [Compound-200, N-(2-hydroxy-4,7-dimethylquinolin-6-yl)-5-(3-methylisoxazol-5-yl)-2-morpholinonicotinamide]	200 to 500 nM
COc1cc2nc(O)cc(C)c2cc1NC(=O)c1cc(-c2nnc(C)o2)ccc1N1CCOCC1 [Compound-201, N-(2-hydroxy-7-methoxy-4-methylquinolin-6-yl)-5-(5-methyl-1,3,4-oxadiazol-2-yl)-2-morpholinobenzamide]	< 200 nM
Cc1cc(O)nc2ccc(NC(=O)c3cc(C(N)=O)ncc3N3CCCC3)cc12 [Compound-202, N4-(2-hydroxy-4-methylquinolin-6-yl)-5-(pyrrolidin-1-yl)pyridine-2,4-dicarboxamide]	< 200 nM
Cc1cc(O)nc2ccc(NC(=O)c3cc(-c4nnn[nH]4)ncc3N3CCCC3)cc12 [Compound-203, N-(2-hydroxy-4-methylquinolin-6-yl)-5-(pyrrolidin-1-yl)-2-(1H-tetrazol-5-yl) isonicotinamide]	< 200 nM
Cc1cc(O)nc2ccc(NC(=O)c3cc(C(C)O)ccc3N3CCCC3c3ccccn3)cc12 (centres unmarked) [Compound-206, N-(2-hydroxy-4-methylquinolin-6-yl)-5-(1-hydroxyethyl)-2-(2-(pyridin-2-yl)pyrrolidin-1-yl)benzamide]	< 200 nM
CC(=O)c1cc(C(=O)Nc2ccc3nc(O)cc(C)c3c2)c(N2CCOCC2)cn1 [Compound-207, 2-acetyl-N-(2-hydroxy-4-methylquinolin-6-yl)-5-morpholinoisonicotinamide]	< 200 nM
Cc1cc(O)nc2ccc(NC(=O)c3cc(C(C)O)ncc3N3CCOCC3)cc12 (centres unmarked) [Compound-208, N-(2-hydroxy-4-methylquinolin-6-yl)-2-(1-hydroxyethyl)-5-morpholinoisonicotinamide]	< 200 nM
CC(=O)c1cc(C(=O)Nc2ccc3nc(O)cc(C)c3c2)c(N2CCC(F)C2)cn1 (centres unmarked) [Compound-209]	< 200 nM
Cc1cc(O)nc2ccc(NC(=O)c3cc(C(C)O)ncc3N3CCC(F)C3)cc12 (centres unmarked) [Compound-210, 5-(3-fluoropyrrolidin-1-yl)-N-(2-hydroxy-4-methylquinolin-6-yl)-2-(1-hydroxyethyl) isonicotinamide]	< 200 nM
Cc1cc(O)nc2ccc(NC(=O)c3cc(C#N)ncc3N3CCCC3CN(C)C)cc12 (centres unmarked) [Compound-211]	200 to 500 nM
